How the values were obtained:
Type in all cases: physicochemical
[1] = Stability of crystalline form B of mesaconine by XRPD comparison after heating to 115° C.; details: heated to 115° C.
Method: Appropriate amount of crystalline form B of mesaconine was sampled and heated to 115° C., and then was performed XRPD test. The test result was compared with XRPD spectrum of comparative sample of crystalline form B of mesaconine (XRPD spectrum of crystalline form B of mesaconine before stability test), and the results were shown in FIG. 9.

[2] = Influencing factors test (high temperature, high humidity, hard light irradiation), Chinese pharmacopoeia general rule 9001, analyzed by XRPD; details: open flat weighing bottle, 10 days
Method: In addition, the crystalline form A of mesaconine was sampled and tested for influencing factors according to the Guiding principle for stability test of raw materials of drugs and preparations (general rule 9001, the Chinese pharmacopoeia, 2015 edition).
High temperature test: the sample was placed in an open flat weighing bottle at 60° C. for 10 days. Then the sample was tested according to the key inspection items of stability test, and analyzed by X-ray powder diffraction.
High humidity test: the sample was placed in an open flat weighing bottle at 25° C. and 90% relative humidity for 10 days. Then the sample was tested according to the key inspection items of stability test, and analyzed by X-ray powder diffraction.
Hard light irradiation test: the sample was placed in an open flat weighing bottle for 10 days under the illuminance of 4500 lx. Then the sample was tested according to the key inspection items of stability test, and analyzed by X-ray powder diffraction.

[3] = Drug hygroscopicity test, Chinese Pharmacopoeia general rule 9103; details: for Percentage of weight increment(%): single batch
Method: The test was performed according to guiding principles for drug hygroscopicity test in Chinese Pharmacopoeia (general rule 9103, volume 4, 2015 edition).
According to the definition of hygroscopicity in Chinese Pharmacopoeia (general rule 9103, volume 4, 2015 edition): when the weight increment by hygroscopicity is less than 2% but not less than 0.2%, it has slight hygroscopicity. The weight increment of crystalline form A of mesaconine was 0.85% under the test conditions, which has slight hygroscopicity and good deliquescence resistance.

[4] = Stability of crystalline form A of mesaconine by XRPD comparison (storage for 4 weeks; heating to 180° C.)
Method: After the samples of crystalline form A of mesaconine were placed at 25° C., 60% RH and 40° C., 75% RH for 4 weeks, it was performed XRPD test. The test result was compared with XRPD spectrum of comparative sample of crystalline form A of the mesaconine (XRPD spectrum of crystalline form A of mesaconine before stability test), and the results were shown in FIG. 4. Another sample of crystalline form A of mesaconine was heated to 180° C., and then was performed XRPD test. The test result was compared with XRPD spectrum of comparative sample of crystalline form A of the mesaconine (XRPD spectrum of crystalline form A of mesaconine before stability test), and the results were shown in FIG. 5.

[5] = Solubility test, Chinese pharmacopoeia 2015 edition, general notice; details: solvent: water
Source text: The crystalline form A of mesaconine was sampled and tested according to the method of solubility test in the Chinese pharmacopoeia (2015 edition, general notice).

N-methyl-1α,6α,16β,18-tetramethoxyl-4-methyl-aconite-3α,8β,13β,14α,15α-pentol [crystalline form B of mesaconine]
Crystalline form stability (XRPD main diffraction peaks) [1]: crystalline form did not change

COC[C@]12CN(C)[C@@H]3[C@@H]4[C@H](OC)[C@H]1[C@@]3([C@@H](OC)C[C@H]2O)[C@@H]1C[C@@]2(O)[C@H](O)[C@@H]1[C@]4(O)[C@@H](O)[C@@H]2OC [crystalline form A of mesaconine, N-methyl-1α,6α,16β,18-tetramethoxyl-4-methyl-aconite-3α,8β,13β,14α,15α-pentol]
Position and relative intensity of main XRPD diffraction peaks after high humidity test ([2]; 25° C., 90% relative humidity): had not changed significantly
Position and relative intensity of main XRPD diffraction peaks after high temperature test ([2]; 60° C.): had not changed significantly
Position and relative intensity of main XRPD diffraction peaks after hard light irradiation test ([2]; illuminance 4500 lx): had not changed significantly
Hygroscopicity class ([3]; Chinese Pharmacopoeia definition): slight hygroscopicity (when the weight increment by hygroscopicity is less than 2% but not less than 0.2%, it has slight hygroscopicity)
Percentage of average weight increment(%) ([3]; hygroscopicity test, average of two batches): 0.85%
Percentage of weight increment(%) ([3]; hygroscopicity test, listed as Sample 1): 0.85%
Percentage of weight increment(%) ([3]; hygroscopicity test, listed as Sample 2): 0.84%
Crystalline form stability (XRPD main diffraction peaks) ([4]; 25° C., 60% RH for 4 weeks): crystalline form did not change
Crystalline form stability (XRPD main diffraction peaks) ([4]; 40° C., 75% RH for 4 weeks): crystalline form did not change
Crystalline form stability (XRPD main diffraction peaks) ([4]; heated to 180° C.): crystalline form did not change
Solubility [5]: easily soluble (1 g of solute can be dissolved in 1~10 ml of solvent)
